Assay results as given in PubChem BioAssay (NCI).
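These data come from cells grown in 96-well plates and exposed to compound for 48 hours at five concentrations. The concentration for 50% growth inhibition is given as GI50. TGI: total growth inhibition.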

How the values were obtained:
Assay in all cases: NCI anticancer screen, dose series, 48 h
HCC-2998 colon = system: HCC-2998 colon
MALME-3M melanoma = system: MALME-3M melanoma
SW-620 colon = system: SW-620 colon
KM12 colon = system: KM12 colon
RPMI-8226 leukemia = system: RPMI-8226 leukemia
SK-OV-3 ovarian = system: SK-OV-3 ovarian
HT29 colon = system: HT29 colon
EKVX NSCLC = system: EKVX NSCLC
M14 melanoma = system: M14 melanoma
PC-3 prostate = system: PC-3 prostate
CAKI-1 renal = system: CAKI-1 renal
NCI-H522 lung = system: NCI-H522 lung
TK-10 renal = system: TK-10 renal
HOP-62 NSCLC = system: HOP-62 NSCLC
NCI-H226 lung = system: NCI-H226 lung
A498 renal = system: A498 renal
MCF7 breast = system: MCF7 breast
COLO 205 colon = system: COLO 205 colon
SN12C renal = system: SN12C renal
DU-145 prostate = system: DU-145 prostate
A549 NSCLC = system: A549 NSCLC
MDA-MB-231 breast = system: MDA-MB-231 breast
OVCAR-3 ovarian = system: OVCAR-3 ovarian
SK-MEL-5 melanoma = system: SK-MEL-5 melanoma
UO-31 renal = system: UO-31 renal
SF-295 CNS = system: SF-295 CNS
NCI-H23 lung = system: NCI-H23 lung
IGROV1 ovarian = system: IGROV1 ovarian

COc1ccccc1Nc1nnc(-c2c[nH]c3ccccc23)o1
GI50 (HCC-2998 colon): 2.55 µM
TGI (HCC-2998 colon): 16.2 µM
GI50 (MALME-3M melanoma): 0.816 µM
TGI (MALME-3M melanoma): 15 µM
GI50 (SW-620 colon): 0.598 µM
TGI (SW-620 colon): > 100 µM
GI50 (KM12 colon): 2.33 µM
TGI (KM12 colon): 16.5 µM
GI50 (RPMI-8226 leukemia): 2.25 µM
TGI (RPMI-8226 leukemia): 16.9 µM
GI50 (SK-OV-3 ovarian): 1.93 µM
TGI (SK-OV-3 ovarian): 25.4 µM
GI50 (HT29 colon): 0.634 µM
TGI (HT29 colon): 14.6 µM
GI50 (EKVX NSCLC): 2.63 µM
TGI (EKVX NSCLC): > 100 µM
GI50 (M14 melanoma): 0.982 µM
TGI (M14 melanoma): 22.7 µM
GI50 (PC-3 prostate): 2.86 µM
TGI (PC-3 prostate): > 100 µM
GI50 (CAKI-1 renal): 0.861 µM
TGI (CAKI-1 renal): 80 µM
GI50 (NCI-H522 lung): 0.476 µM
TGI (NCI-H522 lung): 3.68 µM
GI50 (TK-10 renal): 7.28 µM
TGI (TK-10 renal): > 100 µM
GI50 (HOP-62 NSCLC): 3.11 µM
TGI (HOP-62 NSCLC): 40 µM
GI50 (NCI-H226 lung): 4.69 µM
TGI (NCI-H226 lung): > 100 µM
GI50 (A498 renal): 17.8 µM
TGI (A498 renal): 53.9 µM
GI50 (MCF7 breast): 0.614 µM
TGI (MCF7 breast): 17.5 µM
GI50 (COLO 205 colon): 1.01 µM
TGI (COLO 205 colon): 11.2 µM
GI50 (SN12C renal): 3.01 µM
TGI (SN12C renal): 16.4 µM
GI50 (DU-145 prostate): 4.26 µM
TGI (DU-145 prostate): > 100 µM
GI50 (A549 NSCLC): 2.99 µM
TGI (A549 NSCLC): > 100 µM
GI50 (MDA-MB-231 breast): 2.91 µM
TGI (MDA-MB-231 breast): 24.6 µM
GI50 (OVCAR-3 ovarian): 1.59 µM
TGI (OVCAR-3 ovarian): 9.55 µM
GI50 (SK-MEL-5 melanoma): 2.02 µM
TGI (SK-MEL-5 melanoma): 5.81 µM
GI50 (UO-31 renal): 3.65 µM
TGI (UO-31 renal): 55 µM
GI50 (SF-295 CNS): 0.857 µM
TGI (SF-295 CNS): 5.69 µM
GI50 (NCI-H23 lung): 1.89 µM
TGI (NCI-H23 lung): 16.6 µM
GI50 (IGROV1 ovarian): 0.682 µM
TGI (IGROV1 ovarian): 37.9 µM
